#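 These data come from cells grown in 96-well plates and exposed to compound for 48 hours at five concentrations. At the GI50, growth is halved.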 The source made the active and inactive calls. No stated cut-off is given here; in the data, active = GI50 up to about 1.1 µM and inactive = higher.
# Assays:
# Test in all cases: growth of human tumour cells (NCI), 48 h
# U-251 = system: U-251
# MOLT-4 = system: MOLT-4
# SNB-19 = system: SNB-19
# SK-OV-3 = system: SK-OV-3
# 786-0 = system: 786-0
# UACC-257 = system: UACC-257
# KM12 = system: KM12
# HT-29 = system: HT-29
# IGROV-1 = system: IGROV-1
# HCC 2998 = system: HCC 2998
# COLO 205 = system: COLO 205
# Malme-3M = system: Malme-3M
# EKVX = system: EKVX
# OVCAR-3 = system: OVCAR-3
# TK-10 = system: TK-10
# HCT-15 = system: HCT-15
# SR = system: SR
# SNB-75 = system: SNB-75
# XF498 = system: XF498
# LXFL 529 = system: LXFL 529
# SW-620 = system: SW-620
# DLD-1 = system: DLD-1
# RPMI-8226 = system: RPMI-8226
# SF-539 = system: SF-539
# NCI-H226 = system: NCI-H226
# K562 = system: K562
# DMS-273 = system: DMS-273
# HOP-18 = system: HOP-18
# CAKI-1 = system: CAKI-1
# KM-20L2 = system: KM-20L2
# SK-MEL-28 = system: SK-MEL-28
# SN12C = system: SN12C
# OVCAR-5 = system: OVCAR-5
# SK-MEL-2 = system: SK-MEL-2
# NCI-H23 = system: NCI-H23
# SF-295 = system: SF-295
# OVCAR-4 = system: OVCAR-4
# UO-31 = system: UO-31
# NCI-H460 = system: NCI-H460
# OVCAR-8 = system: OVCAR-8
# A549 = system: A549
# RXF 631 = system: RXF 631
# NCI-H522 = system: NCI-H522
# M14 = system: M14
# M19-MEL = system: M19-MEL
# HOP-92 = system: HOP-92
# DMS-114 = system: DMS-114
# SK-MEL-5 = system: SK-MEL-5
# RXF 393 = system: RXF 393
# SNB-78 = system: SNB-78
# HCT-116 = system: HCT-116
# UACC-62 = system: UACC-62
# A498 = system: A498
# ACHN = system: ACHN
# CCRF-CEM = system: CCRF-CEM
# HL-60 = system: HL-60
# LOX IMVI = system: LOX IMVI
# SF-268 = system: SF-268
compound,measurement,setting,value
CC(C)NC(=O)OCc1nnn2c1C(OC(=O)NC(C)C)CC2 (configuration not stated),GI50,U-251,> 100 µM (inactive)
same,GI50,MOLT-4,> 100 µM (inactive)
same,GI50,SNB-19,> 100 µM (inactive)
same,GI50,SK-OV-3,> 100 µM (inactive)
same,GI50,786-0,> 100 µM (inactive)
same,GI50,UACC-257,> 100 µM (inactive)
same,GI50,KM12,> 100 µM (inactive)
same,GI50,HT-29,> 100 µM (inactive)
same,GI50,IGROV-1,> 100 µM (inactive)
same,GI50,HCC 2998,> 100 µM (inactive)
same,GI50,COLO 205,> 100 µM (inactive)
same,GI50,Malme-3M,> 100 µM (inactive)
same,GI50,EKVX,> 100 µM (inactive)
same,GI50,OVCAR-3,> 100 µM (inactive)
same,GI50,TK-10,> 100 µM (inactive)
same,GI50,HCT-15,> 100 µM
same,GI50,SR,> 100 µM (inactive)
same,GI50,SNB-75,> 100 µM (inactive)
same,GI50,XF498,> 100 µM (inactive)
same,GI50,LXFL 529,> 100 µM (inactive)
same,GI50,SW-620,> 100 µM (inactive)
same,GI50,DLD-1,> 100 µM (inactive)
same,GI50,RPMI-8226,> 100 µM (inactive)
same,GI50,SF-539,> 100 µM (inactive)
same,GI50,NCI-H226,> 100 µM (inactive)
same,GI50,K562,> 100 µM (inactive)
same,GI50,DMS-273,> 100 µM (inactive)
same,GI50,HOP-18,> 100 µM (inactive)
same,GI50,CAKI-1,> 100 µM (inactive)
same,GI50,KM-20L2,> 100 µM (inactive)
same,GI50,SK-MEL-28,> 100 µM (inactive)
same,GI50,SN12C,> 100 µM (inactive)
same,GI50,OVCAR-5,> 100 µM (inactive)
same,GI50,SK-MEL-2,> 100 µM (inactive)
same,GI50,NCI-H23,> 100 µM (inactive)
same,GI50,SF-295,> 100 µM (inactive)
same,GI50,OVCAR-4,> 100 µM (inactive)
same,GI50,UO-31,> 100 µM (inactive)
same,GI50,NCI-H460,> 100 µM (inactive)
same,GI50,OVCAR-8,> 100 µM (inactive)
same,GI50,A549,> 100 µM (inactive)
same,GI50,RXF 631,> 100 µM (inactive)
same,GI50,NCI-H522,> 100 µM (inactive)
same,GI50,M14,> 100 µM (inactive)
same,GI50,M19-MEL,> 100 µM (inactive)
same,GI50,HOP-92,> 100 µM (inactive)
same,GI50,DMS-114,> 100 µM (inactive)
same,GI50,SK-MEL-5,> 100 µM (inactive)
same,GI50,RXF 393,> 100 µM (inactive)
same,GI50,SNB-78,> 100 µM (inactive)
same,GI50,HCT-116,> 100 µM (inactive)
same,GI50,UACC-62,> 100 µM (inactive)
CC(=O)NC1C(O)CC(OCCCSCCN)(C(=O)O)OC1C(O)C(O)CO (configuration not stated),GI50,U-251,> 100 µM (inactive)
same,GI50,MOLT-4,> 100 µM (inactive)
same,GI50,SNB-19,> 100 µM (inactive)
same,GI50,A498,> 100 µM (inactive)
same,GI50,UACC-257,> 100 µM (inactive)
same,GI50,KM12,> 100 µM (inactive)
same,GI50,HT-29,> 100 µM (inactive)
same,GI50,IGROV-1,> 100 µM (inactive)
same,GI50,HCC 2998,> 100 µM (inactive)
same,GI50,COLO 205,> 100 µM (inactive)
same,GI50,Malme-3M,> 100 µM (inactive)
same,GI50,EKVX,> 100 µM (inactive)
same,GI50,TK-10,> 100 µM (inactive)
same,GI50,HCT-15,> 100 µM
same,GI50,SR,> 100 µM (inactive)
same,GI50,SNB-75,> 100 µM (inactive)
same,GI50,XF498,> 100 µM (inactive)
same,GI50,LXFL 529,> 100 µM (inactive)
same,GI50,ACHN,> 100 µM (inactive)
same,GI50,SW-620,> 100 µM (inactive)
same,GI50,DLD-1,> 100 µM (inactive)
same,GI50,RPMI-8226,> 100 µM (inactive)
same,GI50,SF-539,> 100 µM (inactive)
same,GI50,NCI-H226,> 100 µM (inactive)
same,GI50,DMS-273,> 100 µM (inactive)
same,GI50,HOP-18,> 100 µM (inactive)
same,GI50,CAKI-1,> 100 µM (inactive)
same,GI50,CCRF-CEM,> 100 µM (inactive)
same,GI50,KM-20L2,> 100 µM (inactive)
same,GI50,SK-MEL-28,> 100 µM (inactive)
same,GI50,SN12C,> 100 µM (inactive)
same,GI50,OVCAR-5,> 100 µM (inactive)
same,GI50,SK-MEL-2,> 100 µM (inactive)
same,GI50,NCI-H23,> 100 µM (inactive)
same,GI50,HL-60,> 100 µM (inactive)
same,GI50,SF-295,> 100 µM (inactive)
same,GI50,OVCAR-4,> 100 µM (inactive)
same,GI50,NCI-H460,> 100 µM (inactive)
same,GI50,OVCAR-8,> 100 µM (inactive)
same,GI50,A549,> 100 µM (inactive)
same,GI50,RXF 631,> 100 µM (inactive)
same,GI50,M14,> 100 µM (inactive)
same,GI50,HOP-92,> 100 µM (inactive)
same,GI50,DMS-114,> 100 µM (inactive)
same,GI50,SK-MEL-5,> 100 µM (inactive)
same,GI50,RXF 393,> 100 µM (inactive)
same,GI50,SNB-78,> 100 µM (inactive)
same,GI50,HCT-116,> 100 µM (inactive)
same,GI50,LOX IMVI,> 100 µM (inactive)
same,GI50,SF-268,> 100 µM (inactive)
